For orientation: IC50 means the concentration that inhibits the measured activity by half. Low values mean greater potency in that assay, high ones weaker potency in that assay.

Each structure is given as a SMILES string.

The text below walks through data of BindingDB's records for doi:10.1016/j.ejmech.2014.11.047 (Dongguk University-Seoul, 2015).

This experiment addresses Hypoxia-inducible factor 1-alpha (Homo sapiens, UniProt Q16665). The experiment can be described thus: Inhibition of HIF-1alpha in human Hep3B cells cotransfected with pGL3-HRE-luciferase plasmid after 24 hrs by dual-luciferase reporter assay.

Sequence of Hypoxia-inducible factor 1-alpha (Q16665 whole entry): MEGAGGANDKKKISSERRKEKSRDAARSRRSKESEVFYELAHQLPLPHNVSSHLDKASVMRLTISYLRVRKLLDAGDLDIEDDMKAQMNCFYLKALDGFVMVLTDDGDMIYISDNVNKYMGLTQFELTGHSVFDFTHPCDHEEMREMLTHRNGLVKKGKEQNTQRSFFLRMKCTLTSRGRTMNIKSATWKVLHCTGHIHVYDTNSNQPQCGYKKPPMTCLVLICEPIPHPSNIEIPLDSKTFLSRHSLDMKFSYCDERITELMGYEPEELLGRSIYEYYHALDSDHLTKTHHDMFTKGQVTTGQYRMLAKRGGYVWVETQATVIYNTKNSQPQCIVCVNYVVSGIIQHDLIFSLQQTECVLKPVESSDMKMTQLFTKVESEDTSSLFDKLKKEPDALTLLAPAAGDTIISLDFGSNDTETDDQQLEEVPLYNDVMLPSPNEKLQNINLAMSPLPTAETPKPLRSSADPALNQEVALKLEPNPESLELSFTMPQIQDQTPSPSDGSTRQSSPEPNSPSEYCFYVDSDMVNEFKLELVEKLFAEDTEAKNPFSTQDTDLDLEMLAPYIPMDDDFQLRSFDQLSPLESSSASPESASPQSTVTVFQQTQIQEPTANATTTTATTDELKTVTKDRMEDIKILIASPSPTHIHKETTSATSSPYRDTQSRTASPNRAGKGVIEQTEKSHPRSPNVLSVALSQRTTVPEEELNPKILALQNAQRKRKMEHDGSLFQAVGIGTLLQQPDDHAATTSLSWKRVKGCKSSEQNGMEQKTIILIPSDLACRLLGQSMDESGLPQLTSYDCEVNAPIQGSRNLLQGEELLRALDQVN

In the case of `CC1(C)Oc2cc3oc(-c4cc(O)cc(O)c4)cc3cc2CC1O` (stereo unspecified) [Moracin P], it took 0.65 nM to reach half-maximal inhibition (IC50).
